Measured values from patent publication US20210386365A1, “BIOMARKERS OF NEUROPATHIC PAIN” (Children`s Medical Center Corporation, priority 2018, published 2021).

System: SNI mice
Experiment: EEG/EMG sleep analysis (NREMS fragmentation by brief awakenings) in spared nerve injury mice treated with analgesic drugs
Type: in vivo
Conditions: for sleep fragmentation: mice with nerve injury, efficacy at doses active in patients with neuropathic pain
From the text: EEG/EMG implantation surgery: C57BL6/j mice were anesthetized with isoflurane gas (3% induction/2% maintenance) and placed in a stereotaxic apparatus (David Kopf Instruments, Tujunga, Calif.). […] Two flexible EMG electrodes(multistranded stainless steel wire; AS131, Cooner Wire, Chatsworth, Calif.) were inserted into the neck extensor muscles. All electrodes were previously soldered to a six-pin connector (MMX852-10-006-10-001000; Mill-Maz Mfg. Corp., Oyster Bay, N.Y.) and covered with epoxy glue to ensure insulation. The headmount was affixed to the animal's skull with dental acrylic cement, and the scalp wound was sutured closed behind the headmount. Mice were given meloxicam (5 mg/kg, i.p.) before they regained consciousness and then daily for 3 days and were housed singly after surgery.
EEG/EMG acquisition: Ten to fifteen days after EEG/EMG implantation, mice were transferred to individual sleep-recording cages (transparent cylindrical cage, 12″ diameter and 12″ height) in a sound-attenuated chamber with a 12:12 h light-dark cycle, ad libitum food and water, and connected to a tethered pre-amplifier (100× gain, 0.5 Hz high-pass filter for EEG, 10 Hz high-pass filter for EMG; Pinnacle Technology Inc., Lawrence, Kans., USA). The other end of the tether was plugged into a low-torque commutator (8204, Pinnacle Technology Inc., Lawrence, Kans., USA) for freely moving recordings. A data conditioning and acquisition system (DCAS, 8206) performed secondary amplification and filtering (low-pass filter: 100 Hz for EEG, 200 Hz for EMG). Mice habituated for 3-5 days to the recording setup before their baseline sleep-wake and sensory behaviors were measured.
Spared nerve injury (SNI): surgery was performed under 3% induction/2% maintenance with isoflurane on adult mice (8 to 12 weeks old). The tibial and common peroneal branches of the sciatic nerve were tightly ligated with a 5.0 silk suture and transected distally, while the sural nerve was left intact (Decosterd and Woolf, 2000). After injury, incision was sutured and mice were allowed to recover on heated pads before being returned to their homecage. The surgeon who performed the SNI was blinded to the genotype. This model causes permanent pain hypersensitivity. Sciatic nerve crush (SNcrush): surgery was performed under 3% induction/2% maintenance with isoflurane on adult mice (8 to 12 weeks old). The left sciatic nerve was exposed just below the sciatic notch under sterile conditions and then crushed using Dumont #5/45 forceps for 30 seconds under a dissection microscope. After the nerve injury, the incision wound was sutured and animals were allowed to recover on heated pads before being returned to their home cage. The surgeon who performed the SNcrush was blinded to the treatment. This model causes transient hypersensitivity before return to normal sensitivity. Sham control: surgery was performed under 3% induction/2% maintenance with isoflurane on adult mice (8 to 12 weeks old). The left sciatic nerve was exposed but left intact and the animals were allowed to recover on heated pads before being returned to their home cage.
EEG and EMG signals were digitized at a sampling rate of 400 Hz through Sirenia® Acquisition software (Pinnacle Technology Inc, Lawrence, Kans., USA) and converted to European Data Format (.EDF). Using SleepSign® for Animal (Kissei Comtec Co., Japan) software, EEG and EMG signals were digitally filtered (EEG, 0.5-100 Hz; EMG, 10-200 Hz) and scored semi-automatically using 10-s epochs, as wake, NREMS or REMS. This preliminary scoring was visually inspected by a trained experimenter, who was blinded to the experimental conditions, and corrected when appropriate. To evaluate sleep fragmentation, transient waking events occurring during NREMS were evaluated: these brief awakenings (BAs) were defined by a high-frequency low-amplitude EEG associated with an increase of EMG tone ranging from 2-15 s (Franken et al., 1991; Tobler et al., 1997). […]

**Q.** How did the “average length of NREM” value (SNI mice, carbamazepine 5 mg/kg versus saline, FIGS. 8E-8G) turn out when `NC(=O)N1c2ccccc2C=Cc2ccccc21` [carbamazepine] was run?
**A.** restored the average length of NREM

**Q.** And the sleep fragmentation?
**A.** dose-dependently normalize sleep fragmentation

**Q.** What does the source list for `NCC1(CC(=O)O)CCCCC1` [gabapentin]?
**A.** total amount of sleep (SNI mice with and without GBP treatment, FIG. 8C): not affected; latency on sleep (time from full wakefulness to sleep) (SNI mice with and without GBP treatment, FIG. 8D): slight increase; time after administration at which effects on NREMS length were the strongest (SNI mice, FIG. 8B): 0 to 2 h; sedation (SNI mice, gabapentin treatment): without causing sedation; average length of NREMS (SNI mice, gabapentin treatment, FIG. 8A): restored the average length of NREMS; sleep fragmentation: dose-dependently normalize sleep fragmentation
